# Measured values from paper PMC10671648, “Nucleation of α-Synuclein Amyloid Fibrils Induced by Cross-Interaction with β-Hairpin Peptides Derived from Immunoglobulin Light Chains” (International Journal of Molecular Sciences, 2023).
# pKd: −log10 of the molar value.
# Tests used:
# αSyn(61–140) = experiment: ThT aggregation assay of αSyn(61–140) under quiescent conditions; format: biochemical; details: concentrations up to 50 µM
# Procedure: Figure 5 Modulation of aggregation of truncated αSyn variants by SMAhp (left) and LENhp (right) in ThT assay under quiescent conditions. Buffer, 30 mM Tris-HCl, pH 7.4, with indicated salt concentration. ThT time course and AFM images of (A,C) 25 µM αSyn(1–95) or (B,D) 25 µM αSyn(61–140) in the absence (gray) and presence of SMAhp (A,B) or LENhp (C,D). Frames around the AFM images correspond to the frames in the kinetics diagrams for indication of the sample; the same color coding for SMAhp and LENhp concentrations as in the kinetic diagrams was used for the AFM image frames.
# αSyn(1–95) and αSyn(61–140) were expressed from codon-optimized gene sequences in the pT7–7 vector in Escherichia coli BL21DE3, without N-terminal acetylation. Expression and purification were performed as for full-length αSyn, with the difference that, for αSyn(1–95), the anion exchange chromatography step was replaced by cation exchange chromatography using a 5 mL HiTrap SP FF column (Cytiva, Marlborough, MA, USA) and 10 mM sodium acetate buffer, pH 5, with elution in a NaCl gradient from 0 to 500 mM.
# Aggregation kinetics were monitored in Greiner 96-well half-area, clear bottom, low-binding plates via ThT fluorescence in a BMG CLARIOstar plate reader. […] Plates were covered with sealing tape, placed in the plate reader, heated to 37 °C, and ThT fluorescence was read using bottom optics.
# Net charge at neutral pH = format: physicochemical
# αSyn = αSyn (Homo sapiens, UniProt P37840); details: agitation conditions; ref [62]; cited from earlier work
# β-wrapin AS10 = details: cited from earlier work
Compound,effect of spermine on ThT fluorescence of αSyn(61–140) (αSyn(61–140)),net charge at neutral pH (Net charge at neutral pH),effect on αSyn fibril formation under agitation (αSyn),"NMR pattern with AS10 (glycine region and downfield amide resonances) (β-wrapin AS10; 1H-15N HSQC NMR of 15N-AS10, ref [57])","pKd (β-wrapin AS10; read-out: KD for AS10, ref [57])","affinity for AS10 (β-wrapin AS10; ref [56,57,58])"
NCCCNCCCCNCCCN [spermine],did not lead to any increase in ThT fluorescence,+4,promote αSyn fibril formation,,,
"IAPP: islet amyloid polypeptide, disease-related amyloid protein (KCNTATCATQRLANFLVHSSNNFGAILSSTNVGSNTY; Islet amyloid polypeptide; UniProt P10997 34-70, looked up)",,,,The same pattern has been observed before,6.04,sub-micromolar affinity
